In patent publication US7977327B2, “Substituted pyrrolidine derivative” (Daiichi Sankyo Company, Limited, priority 2004, dated 2011):
In brackets after ≈: the same amount, converted by molar mass. Counter-ions that a name gives are not always drawn. Like-named read-outs stand apart in the source and are kept apart here. Marks after values point to notes of the source that are not given here. Each block holds one compound with its values, some of them ahead of it.

Columns and labels:
[1] = test system: P. aeruginosa 32104; experiment: Antibacterial activity (MIC), standard method of the Japan Society of Chemotherapy; type: cell-based
Experimental: (§1) The antimicrobial activities of the compounds of the present invention were determined according to a standard method designated by the Japan Society of Chemotherapy. The results are expressed by MIC (μg/mL) (Table 1). In Table 1, S. aureus 870307 and S. pneumonia J24 are quinolone-resistant bacteria.

[2] = test system: S. epidermidis 56500; experiment: as above; type: cell-based
Experimental: as §1

[3] = test system: E. coli NIHJ; experiment: as above; type: cell-based
Experimental: as §1

[4] = test system: S. flexneri 2A 5503; experiment: as above; type: cell-based
Experimental: as §1

[5] = test system: S. aureus 870307; experiment: as above; type: cell-based
Experimental: as §1

[6] = test system: S. pyogenes G-36; experiment: as above; type: cell-based
Experimental: as §1

[7] = test system: S. pneumoniae J24; experiment: as above; type: cell-based
Experimental: as §1

[8] = test system: S. aureus FDA 209P; experiment: as above; type: cell-based
Experimental: as §1

[9] = test system: S. maltophilia IID 1275; experiment: as above; type: cell-based
Experimental: as §1

[10] = test system: P. aeruginosa 32121; experiment: as above; type: cell-based
Experimental: as §1

[11] = test system: K. pneumoniae TYPE I; experiment: as above; type: cell-based
Experimental: as §1

[12] = test system: P. Vulgalis 08601; experiment: as above; type: cell-based
Experimental: as §1

[13] = test system: E. faevcalis ATCC 19433; experiment: as above; type: cell-based
Experimental: as §1

[14] = test system: S. marcescens 10100; experiment: as above; type: cell-based
Experimental: as §1

[15] = test system: Chinese hamster lung (CHL/IU) cells; experiment: Effect of inducing chromosomal aberration; type: cell-based; conditions: for Percentile induction of structural aberration (TA %): 24 hours
Experimental: From each sample solution, samples to be tested having a concentration of 1, 3, 10, 30, 50, and 100 μg/mL (as reduced to free form) were prepared. As a negative control, 0.1 mol/L NaOH was employed.
Chinese hamster lung (CHL/IU) cells in logarithmic growth phase were employed. The cells were treated in a culture solution containing each sample to be tested for 24 hours. Subsequently, a chromosome specimen was prepared from the thus-treated cells. The culture solution employed was an Eagle's MEM (product of NISSUI PHARMACEUTICAL CO., LTD.) medium containing 15% fetal bovine serum (15% FBS-MEM).
In each sample concentration, 100 cells during metaphase were observed, to thereby record types and numbers of the chromosomal aberration.

[16] = S. aureus 870307, quinolone-resistant
[17] = S. pneumoniae J24, quinolone-resistant

Structure (SMILES): CCC[C@H]1CN(c2c(F)cc3c(=O)c(C(=O)O)cn([C@@H]4C[C@@H]4F)c3c2C)C[C@H]1N (as salt: hydrochloride) [Compound No. 5, 7-[(3S,4S)-3-Amino-4-propylpyrrolidin-1-yl]-6-fluoro-1-[(1R,2S)-2-fluorocyclopropyl]-8-methyl-1,4-dihydro-4-oxoquinoline-3-carboxylic acid-hydrochloride]
melting point: 197 to 207 °C

Structure (SMILES): CC[C@H]1CN(c2c(F)cc3c(=O)c(C(=O)O)cn4c3c2OC[C@@H]4C)C[C@H]1NC [Compound No. 13, (3S)-10-[(3S,4S)-3-Ethyl-4-methylaminopyrrolidin-1-yl]-9-fluoro-2,3-dihydro-3-methyl-7-oxo-7H-pyrido[1,2,3-de][1,4]benzoxazine-6-carboxylic acid]
melting point: 211 to 213 °C

Structure (SMILES): CCC[C@H]1CN(c2c(F)cc3c(=O)c(C(=O)O)cn([C@@H]4C[C@@H]4F)c3c2OC)C[C@H]1N [Compound No. 4, 7-[(3S,4S)-3-Amino-4-propylpyrrolidin-1-yl]-6-fluoro-1-[(1R,2S)-2-fluorocyclopropyl]-8-methoxy-1,4-dihydro-4-oxoquinoline-3-carboxylic acid]
melting point: 79 to 83 °C

Structure (SMILES): O=C(O)c1cn(C2CC2)c2cc(N3CCNCC3)c(F)cc2c1=O [CPFX, reference compound]
MIC ([1]; P. aeruginosa 32104): 0.05 µg/mL (≈ 0.151 µM) | MIC ([2]; S. epidermidis 56500): 0.2 µg/mL (≈ 0.604 µM) | MIC ([3]; E. coli NIHJ): ≦0.003 μg/mL | MIC [4]: 0.006 µg/mL (≈ 0.0181 µM) | MIC [5, 16]: >6.25 µg/mL | MIC ([6]; S. pyogenes G-36): 1.56 µg/mL (≈ 4.71 µM) | MIC [7, 17]: 0.39 µg/mL (≈ 1.18 µM) | MIC ([8]; S. aureus FDA 209P): 0.1 µg/mL (≈ 0.302 µM) | MIC ([9]; S. maltophilia IID 1275): 0.78 µg/mL (≈ 2.35 µM) | MIC ([10]; P. aeruginosa 32121): 0.025 µg/mL (≈ 0.0754 µM) | MIC ([11]; K. pneumoniae TYPE I): 0.025 µg/mL (≈ 0.0754 µM) | MIC ([12]; P. Vulgalis 08601): ≦0.003 μg/mL | MIC ([13]; E. faevcalis ATCC 19433): 0.78 µg/mL (≈ 2.35 µM) | MIC ([14]; S. marcescens 10100): 0.025 µg/mL (≈ 0.0754 µM)

Structure (SMILES): C=C[C@H]1CN(c2c(F)cc3c(=O)c(C(=O)O)cn4c3c2OC[C@@H]4C)C[C@H]1N [Compound No. 7, (3S)-10-[(3S,4S)-3-Amino-4-vinyl-1-pyrrolidinyl]-9-fluoro-2,3-dihydro-3-methyl-7-oxo-7H-pyrido[1,2,3-de][1,4]benzoxazine-6-carboxylic acid]
melting point: 238 to 240 °C

Structure (SMILES): CC[C@H]1CN(c2c(F)cc3c(=O)c(C(=O)O)cn(C4CC4)c3c2C)C[C@H]1N [Comparative Compound D, 7-[(3S,4S)-3-Amino-4-ethylpyrrolidine-1-yl]-1-cyclopropyl-6-fluoro-8-methyl-1,4-dihydro-4-oxoquinoline-3-carboxylic acid, reference compound]
Percentile induction of structural aberration (TA %) ([15]; 1 μg/mL, CHL/IU cells): 4% | Percentile induction of structural aberration (TA %) ([15]; 3 μg/mL, CHL/IU cells): 0% | Percentile induction of structural aberration (TA %) ([15]; 10 μg/mL, CHL/IU cells): 3% | Percentile induction of structural aberration (TA %) ([15]; 30 μg/mL, CHL/IU cells): 63* % | Percentile induction of structural aberration (TA %) ([15]; 50 μg/mL, CHL/IU cells): 98* % | Percentile induction of structural aberration (TA %) ([15]; 100 μg/mL, CHL/IU cells): 100* %

Structure (SMILES): CC[C@H]1CN(c2c(F)c(N)c3c(=O)c(C(=O)O)cn(C4CC4)c3c2C)C[C@H]1N [Comparative Compound E, 5-amino-7-[(3S,4S)-3-amino-4-ethyl-1-pyrrolidinyl]-1-cyclopropyl-6-fluoro-1,4-dihydro-8-methyl-4-oxoquinoline-3-carboxylic acid, reference compound]
Percentile induction of structural aberration (TA %) ([15]; 1 μg/mL, CHL/IU cells): 0% | Percentile induction of structural aberration (TA %) ([15]; 3 μg/mL, CHL/IU cells): 3% | Percentile induction of structural aberration (TA %) ([15]; 10 μg/mL, CHL/IU cells): 1% | Percentile induction of structural aberration (TA %) ([15]; 30 μg/mL, CHL/IU cells): 6% | Percentile induction of structural aberration (TA %) ([15]; 50 μg/mL, CHL/IU cells): TOX*^1 | Percentile induction of structural aberration (TA %) ([15]; 100 μg/mL, CHL/IU cells): TOX*^1 | Concentration at which C-mitosis and ski-pair-like chromosomes are observed considerably ([15]; CHL/IU cells): ≥ 50 µg/mL | Significant increase in number of the cells exhibiting chromosomal aberration ([15]; at a concentration of up to 30 μg/mL): not observed

Structure (SMILES): CCC[C@H]1CN(c2c(F)cc3c(=O)c(C(=O)O)cn([C@@H]4C[C@@H]4F)c3c2C)C[C@H]1N [Compound No. 5, 7-[(3S,4S)-3-Amino-4-propylpyrrolidin-1-yl]-6-fluoro-1-[(1R,2S)-2-fluorocyclopropyl]-8-methyl-1,4-dihydro-4-oxoquinoline-3-carboxylic acid-hydrochloride]
MIC ([1]; Pseudomonas aeruginosa, 32104): 0.2 µg/mL | MIC ([2]; Staphylococcus epidermidis, 56500): 0.025 µg/mL | MIC ([3]; Escherichia coli): 0.006 µg/mL | MIC ([4]; Shigella flexneri, 2A5503, read-out: MIC): 0.006 µg/mL | MIC ([5]; Staphylococcus aureus, 870307): 0.2 µg/mL | MIC ([6]; Streptococcus pyogenes, G36): 0.025 µg/mL | MIC ([7]; Streptococcus pneumoniae, J24): 0.025 µg/mL | MIC ([8]; Staphylococcus aureus, FDA209P): 0.006 µg/mL | MIC ([9]; Stenotrophomonas maltophilia, IID1275): 0.05 µg/mL | MIC ([10]; Pseudomonas aeruginosa, 32121): 0.1 µg/mL | MIC ([11]; Klebsiella pneumoniae): 0.025 µg/mL | MIC [12]: 0.012 µg/mL | MIC [13]: 0.1 µg/mL | MIC ([14]; Serratia marcescens, 10100): 0.05 µg/mL

Structure (SMILES): COc1c(N2C[C@@H]3CCCN[C@@H]3C2)c(F)cc2c(=O)c(C(=O)O)cn(C3CC3)c12 [MFLX, reference compound]
MIC ([1]; P. aeruginosa 32104): 0.39 µg/mL (≈ 0.972 µM) | MIC ([2]; S. epidermidis 56500): 0.1 µg/mL (≈ 0.249 µM) | MIC ([3]; E. coli NIHJ): 0.006 µg/mL (≈ 0.0149 µM) | MIC [4]: 0.012 µg/mL (≈ 0.0299 µM) | MIC [5, 16]: 0.78 µg/mL (≈ 1.94 µM) | MIC ([6]; S. pyogenes G-36): 0.2 µg/mL (≈ 0.498 µM) | MIC [7, 17]: 0.025 µg/mL (≈ 0.0623 µM) | MIC ([8]; S. aureus FDA 209P): 0.025 µg/mL (≈ 0.0623 µM) | MIC ([9]; S. maltophilia IID 1275): 0.1 µg/mL (≈ 0.249 µM) | MIC ([10]; P. aeruginosa 32121): 0.2 µg/mL (≈ 0.498 µM) | MIC ([11]; K. pneumoniae TYPE I): 0.05 µg/mL (≈ 0.125 µM) | MIC ([12]; P. Vulgalis 08601): 0.025 µg/mL (≈ 0.0623 µM) | MIC ([13]; E. faevcalis ATCC 19433): 0.2 µg/mL (≈ 0.498 µM) | MIC ([14]; S. marcescens 10100): 0.1 µg/mL (≈ 0.249 µM)

Structure (SMILES): C[C@H]1COc2c(N3CCN(C)CC3)c(F)cc3c(=O)c(C(=O)O)cn1c23 [LVFX, reference compound]
MIC ([1]; P. aeruginosa 32104): 0.2 µg/mL (≈ 0.553 µM) | MIC ([2]; S. epidermidis 56500): 0.39 µg/mL (≈ 1.08 µM) | MIC ([3]; E. coli NIHJ): 0.012 µg/mL (≈ 0.0332 µM) | MIC [4]: 0.025 µg/mL (≈ 0.0692 µM) | MIC [5, 16]: >6.25 µg/mL | MIC ([6]; S. pyogenes G-36): 0.78 µg/mL (≈ 2.16 µM) | MIC [7, 17]: 0.78 µg/mL (≈ 2.16 µM) | MIC ([8]; S. aureus FDA 209P): 0.2 µg/mL (≈ 0.553 µM) | MIC ([9]; S. maltophilia IID 1275): 0.39 µg/mL (≈ 1.08 µM) | MIC ([10]; P. aeruginosa 32121): 0.1 µg/mL (≈ 0.277 µM) | MIC ([11]; K. pneumoniae TYPE I): 0.1 µg/mL (≈ 0.277 µM) | MIC ([12]; P. Vulgalis 08601): 0.012 µg/mL (≈ 0.0332 µM) | MIC ([13]; E. faevcalis ATCC 19433): 0.78 µg/mL (≈ 2.16 µM) | MIC ([14]; S. marcescens 10100): 0.1 µg/mL (≈ 0.277 µM)

More lines, now with the values ahead:

melting point: 223 to 225 °C
Structure (SMILES): CC[C@H]1CN(c2c(F)cc3c(=O)c(C(=O)O)cn([C@@H]4C[C@@H]4F)c3c2C)C[C@H]1NC [Compound No. 15, 7-[(3S,4S)-3-Ethyl-4-methylaminopyrrolidin-1-yl]-6-fluoro-1-[(1R,2S)-2-fluorocyclopropyl]-8-methyl-1,4-dihydro-4-oxoquinoline-3-carboxylic acid]

melting point: 232 to 234 °C
Structure (SMILES): CC[C@H]1CN(c2ccc3c(=O)c(C(=O)O)cn([C@@H]4C[C@@H]4F)c3c2C)C[C@H]1N [Compound No. 14, 7-[(3S,4S)-3-Amino-4-ethylpyrrolidine-1-yl]-1-[(1R,2S)-2-fluorocyclopropyl]-8-methyl-1,4-dihydro-4-oxoquinoline-3-carboxylic acid]

melting point: 218 to 220 °C
Structure (SMILES): C[C@H]1COc2c(N3C[C@@H](N)[C@@H](C4CC4)C3)c(F)cc3c(=O)c(C(=O)O)cn1c23 [Compound No. 9, (3S)-10-[(3S,4S)-3-Amino-4-cyclopropylpyrrolidin-1-yl]-9-fluoro-2,3-dihydro-3-methyl-7-oxo-7H-pyrido[1,2,3-de][1,4]benzoxazine-6-carboxylic acid]

melting point: 225 to 231 °C
Structure (SMILES): CCC[C@H]1CN(c2c(F)cc3c(=O)c(C(=O)O)cn4c3c2OC[C@@H]4C)C[C@H]1N (as salt: hydrochloride)

melting point: 143 to 145 °C
Structure (SMILES): CC[C@H]1CN(c2c(F)cc3c(=O)c(C(=O)O)cn([C@@H]4C[C@@H]4F)c3c2OC)C[C@H]1NC [Compound No. 12, 7-[(3S,4S)-3-Ethyl-4-methylaminopyrrolidin-1-yl]-6-fluoro-1-[(1R,2S)-2-fluorocyclopropyl]-8-methoxy-1,4-dihydro-4-oxoquinoline-3-carboxylic acid]

melting point: 168 to 171 °C
Structure (SMILES): CN[C@@H]1CN(c2c(F)cc3c(=O)c(C(=O)O)cn([C@@H]4C[C@@H]4F)c3c2C)C[C@@H]1C(C)C [Compound No. 17, 6-Fluoro-1-[(1R,2S)-2-fluorocyclopropyl]-7-[(3S,4S)-3-isopropyl-4-methylaminopyrrolidin-1-yl]-8-methyl-1,4-dihydro-4-oxoquinoline-3-carboxylic acid]
